In patent publication US20260285875A1, “INHIBITORS OF PARG” (858 Therapeutics, Inc., priority 2023, published 2026):

Target: T1, cellular PARG (Homo sapiens, UniProt Q86W56)
T1 construct: endogenous in cells; host or cells: HeLa
Test: Nuclear PAR accumulation assay (immunofluorescence high-content imaging, MMS-treated HeLa cells)
Type: cell-based
Conditions: 1 hour compound then MMS 50 μg/mL for an additional hour
Experimental: HeLa cells were plated at 15,000 cells/well in a 96-well plate the day before compound treatment and then treated with varying concentrations of test compound and incubated for 1 hour at 37° C.+5% CO2. Following test compound treatment, methylmethane sulfonate (MMS) was added to a final concentration of 50 μg/mL and the cells were incubated for an additional hour. Following treatment, the cells were fixed with ice cold 95% methanol and the plates sealed and placed at -20° C. for 15 minutes. The cells were then washed once with phosphate buffered saline (PBS) and permeabilized with 0.10% Triton-X 100 for 20 minutes at room temperature. […] The cells were then washed three times with PBS before incubation with a fluorescently conjugated goat anti-mouse antibody (Invitrogen A32723) diluted 1:500 in 5% FBS+0.1% Tween-20+PBS for 1 hour at room temperature. The cells were again washed three times with PBS and the nuclei labeled by incubating with 1 μg/mL DAPI (4′,6-diamidino-2-phenylindole). Nuclear PAR accumulation was evaluated using high-content fluorescence microscopy. Four fields for each well were acquired at 20× magnification resulting in at least 1,000 cells analyzed per well. […] Both the average intensity per nucleus and percent PAR positive cells were quantified. […] Concentration-response-curves and IC50 values were generated using four parameter logistic curve fit software.
Representative data for exemplary compounds is presented in Table 32, Table 33 and Table 34.

T1 sequence (Q86W56 whole entry): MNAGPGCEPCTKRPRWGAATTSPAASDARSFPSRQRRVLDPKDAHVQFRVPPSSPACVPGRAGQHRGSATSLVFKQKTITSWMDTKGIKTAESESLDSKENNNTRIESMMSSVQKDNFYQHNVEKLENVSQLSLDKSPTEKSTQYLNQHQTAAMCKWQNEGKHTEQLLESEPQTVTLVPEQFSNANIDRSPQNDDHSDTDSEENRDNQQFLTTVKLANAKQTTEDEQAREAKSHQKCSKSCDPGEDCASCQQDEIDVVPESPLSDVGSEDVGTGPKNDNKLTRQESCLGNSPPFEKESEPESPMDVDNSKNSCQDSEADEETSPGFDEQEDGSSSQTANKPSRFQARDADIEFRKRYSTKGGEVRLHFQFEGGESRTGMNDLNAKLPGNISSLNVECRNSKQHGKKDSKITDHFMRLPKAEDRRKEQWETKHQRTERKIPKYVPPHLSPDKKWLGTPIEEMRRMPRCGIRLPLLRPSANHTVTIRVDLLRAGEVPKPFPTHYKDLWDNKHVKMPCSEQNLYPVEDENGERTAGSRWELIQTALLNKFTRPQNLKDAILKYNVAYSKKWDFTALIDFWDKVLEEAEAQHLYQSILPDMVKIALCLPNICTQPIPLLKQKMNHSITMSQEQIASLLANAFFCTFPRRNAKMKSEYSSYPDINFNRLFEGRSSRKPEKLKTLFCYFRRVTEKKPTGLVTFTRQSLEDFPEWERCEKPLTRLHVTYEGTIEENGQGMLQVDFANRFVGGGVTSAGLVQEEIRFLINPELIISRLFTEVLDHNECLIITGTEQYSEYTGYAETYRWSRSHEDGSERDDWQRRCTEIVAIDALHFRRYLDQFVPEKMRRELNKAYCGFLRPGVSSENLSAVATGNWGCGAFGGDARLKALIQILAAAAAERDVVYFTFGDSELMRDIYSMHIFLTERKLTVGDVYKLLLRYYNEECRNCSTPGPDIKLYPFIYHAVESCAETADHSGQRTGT

IC50	Compound
< 100 nM	[2H]C([2H])(c1cnn(C)c1)N1C(=O)c2cc(S(=O)(=O)NC3(C)CC3)ccc2N2C1=NC[C@H]2C#C [Example 43, (R)-1-ethynyl-4-((1-methyl-1H-pyrazol-4-yl)methyl-d2)-N-(1-methylcyclopropyl)-5-oxo-1,2,4,5-tetrahydroimidazo[1,2-a]quinazoline-7-sulfonamide]
100 to 1000 nM	Cn1cc(CN2C(=O)c3cc(S(=O)(=O)NC4(C)CC4)ccc3N3C2=NC[C@H]3C2CCOCC2)cn1 [Example 44, (R)-4-((1-methyl-1H-pyrazol-4-yl)methyl)-N-(1-methylcyclopropyl)-5-oxo-1-(tetrahydro-2H-pyran-4-yl)-1,2,4,5-tetrahydroimidazo[1,2-a]quinazoline-7-sulfonamide]
< 100 nM	Cn1cc(CN2C(=O)c3cc(S(=O)(=O)NC4(C)CC4)ccc3N3C2=NC[C@H]3C2CCC(F)(F)CC2)cn1 [Example 45, (R)-1-(4,4-difluorocyclohexyl)-4-((1-methyl-1H-pyrazol-4-yl)methyl)-N-(1-methylcyclopropyl)-5-oxo-1,2,4,5-tetrahydroimidazo[1,2-a]quinazoline-7-sulfonamide]
< 100 nM	Cn1cc(CN2C(=O)c3cc(S(=O)(=O)NC4(C)CC4)ccc3N3C2=NC[C@H]3C(F)F)cn1 [Example 47, (S)-1-(difluoromethyl)-4-((1-methyl-1H-pyrazol-4-yl)methyl)-N-(1-methylcyclopropyl)-5-oxo-1,2,4,5-tetrahydroimidazo[1,2-a]quinazoline-7-sulfonamide]
< 100 nM	Cn1cc(CN2C(=O)c3cc(S(=O)(=O)NC4(C)CC4)ccc3N3C2=NC[C@H]3C2CCCC2)cn1 [Example 48, (R)-1-cyclopentyl-4-((1-methyl-1H-pyrazol-4-yl)methyl)-N-(1-methylcyclopropyl)-5-oxo-1,2,4,5-tetrahydroimidazo[1,2-a]quinazoline-7-sulfonamide]
< 100 nM	[2H]C([2H])(c1cnn(C)c1)N1C(=O)c2cc(S(=O)(=O)NC3(C)CC3)ccc2N2C1=NC[C@H]2C#CC1(C)CC1 [Example 49, (R)-4-((1-methyl-1H-pyrazol-4-yl)methyl-d2)-N-(1-methylcyclopropyl)-1-((1-methylcyclopropyl)ethynyl)-5-oxo-1,2,4,5-tetrahydroimidazo[1,2-a]quinazoline-7-sulfonamide]
1000 to 10000 nM	C[C@@H]1CN=C2N(Cc3cnn(C)c3)C(=O)c3cc(S(=O)(=O)NC4(C)CC4)cc(N4C[C@H](C)N[C@@H](C)C4)c3N21 [Example 53, (R)-9-((3S,5S)-3,5-dimethylpiperazin-1-yl)-1-methyl-4-((1-methyl-1H-pyrazol-4-yl)methyl)-N-(1-methylcyclopropyl)-5-oxo-1,2,4,5-tetrahydroimidazo[1,2-a]quinazoline-7-sulfonamide]
100 to 1000 nM	C[C@H]1CN(c2cc(S(=O)(=O)NC3(C)CC3)cc3c2N2CC(C)(C)N=C2N(C)C3=O)C[C@H](C)N1 [Example 54, 9-((3S,5S)-3,5-dimethylpiperazin-1-yl)-2,2,4-trimethyl-N-(1-methylcyclopropyl)-5-oxo-1,2,4,5-tetrahydroimidazo[1,2-a]quinazoline-7-sulfonamide]
1000 to 10000 nM	C[C@@H]1CN=C2N(C)C(=O)c3cc(S(=O)(=O)NC4(C)CC4)cc(-c4ccccc4CO)c3N21 [Example 62, (R)-9-(2-(hydroxymethyl)phenyl)-1,4-dimethyl-N-(1-methylcyclopropyl)-5-oxo-1,2,4,5-tetrahydroimidazo[1,2-a]quinazoline-7-sulfonamide]
< 100 nM	Cn1cc(CN2C(=O)c3cc(S(=O)(=O)NC4(C)CC4)ccc3N3C2=NC[C@H]3C#Cc2ccn(C)n2)cn1 [Example 65, (R)-1-((1-methyl-1H-pyrazol-3-yl)ethynyl)-4-((1-methyl-1H-pyrazol-4-yl)methyl)-N-(1-methylcyclopropyl)-5-oxo-1,2,4,5-tetrahydroimidazo[1,2-a]quinazoline-7-sulfonamide]
< 100 nM	Cn1cc(CN2C(=O)c3cc(S(=O)(=O)NC4(C)CC4)ccc3N3C2=NC[C@H]3C#Cc2ncn(C)n2)cn1 [Example 66, (R)-1-((1-methyl-1H-1,2,4-triazol-3-yl)ethynyl)-4-((1-methyl-1H-pyrazol-4-yl)methyl)-N-(1-methylcyclopropyl)-5-oxo-1,2,4,5-tetrahydroimidazo[1,2-a]quinazoline-7-sulfonamide]

The remaining lines, values behind:

Compound	IC50
CC#C[C@@H]1CN=C2N(C)C(=O)c3cc(S(=O)(=O)NC4(C)CC4)cc(Br)c3N21 [Example 42, (R)-9-bromo-4-methyl-N-(1-methylcyclopropyl)-5-oxo-1-(prop-1-yn-1-yl)-1,2,4,5-tetrahydroimidazo[1,2-a]quinazoline-7-sulfonamide]	< 100 nM
CN(C)C(=O)N1CCN(c2cc(S(=O)(=O)NC3(C)CC3)cc3c2N2CC(C)(C)N=C2N(C)C3=O)CC1 [Example 46, N,N-dimethyl-4-(2,2,4-trimethyl-7-(N-(1-methylcyclopropyl)sulfamoyl)-5-oxo-1,2,4,5-tetrahydroimidazo[1,2-a]quinazolin-9-yl)piperazine-1-carboxamide]	< 100 nM
CNC(=O)c1ccc(-c2cc(S(=O)(=O)NC3(C)CC3)cc3c2N2C(=N[C@H]4CCC[C@H]42)N(C)C3=O)cn1 [Example 50, N-methyl-5-((7aS,10aR)-6-methyl-3-(N-(1-methylcyclopropyl)sulfamoyl)-5-oxo-6,7a,8,9,10,10a-hexahydro-5H-cyclopenta[4,5]imidazo[1,2-a]quinazolin-1-yl)picolinamide]	100 to 1000 nM
C#C[C@@H]1CN=C2N(C)C(=O)c3cc(S(=O)(=O)NC4(C)CC4)cc(Cl)c3N21 [Example 51, (R)-9-chloro-1-ethynyl-4-methyl-N-(1-methylcyclopropyl)-5-oxo-1,2,4,5-tetrahydroimidazo[1,2-a]quinazoline-7-sulfonamide]	< 100 nM
CN1C(=O)c2cc(S(=O)(=O)NC3(C)CC3)cc(C3=CCN(C(=O)C4CC4)CC3)c2N2C1=N[C@H]1CCC[C@H]12 [Example 52, (7aS,10aR)-1-(1-(cyclopropanecarbonyl)-1,2,3,6-tetrahydropyridin-4-yl)-6-methyl-N-(1-methylcyclopropyl)-5-oxo-6,7a,8,9,10,10a-hexahydro-5H-cyclopenta[4,5]imidazo[1,2-a]quinazoline-3-sulfonamide]	< 100 nM
[2H]C([2H])(c1cnn(C)c1)N1C(=O)c2cc(S(=O)(=O)NC3(C)CC3)ccc2N2C1=NC[C@H]2C#CCN(C)C [Example 55, (R)-1-(3-(dimethylamino)prop-1-yn-1-yl)-4-((1-methyl-1H-pyrazol-4-yl)methyl-d2)-N-(1-methylcyclopropyl)-5-oxo-1,2,4,5-tetrahydroimidazo[1,2-a]quinazoline-7-sulfonamide]	< 100 nM
CN(C)CC#C[C@@H]1CN=C2N(C)C(=O)c3cc(S(=O)(=O)NC4(C)CC4)cc(Cl)c3N21 [Example 56, (R)-9-chloro-1-(3-(dimethylamino)prop-1-yn-1-yl)-4-methyl-N-(1-methylcyclopropyl)-5-oxo-1,2,4,5-tetrahydroimidazo[1,2-a]quinazoline-7-sulfonamide]	< 100 nM
COc1ccc(C(=O)/C=C/C(=O)N2CCN(c3cc(S(=O)(=O)NC4(C)CC4)cc4c3N3C(=NC[C@H]3C)N(C)C4=O)CC2)cc1 [Example 57, (R,E)-9-(4-(4-(4-methoxyphenyl)-4-oxobut-2-enoyl)piperazin-1-yl)-1,4-dimethyl-N-(1-methylcyclopropyl)-5-oxo-1,2,4,5-tetrahydroimidazo[1,2-a]quinazoline-7-sulfonamide]	100 to 1000 nM
CNC(=O)c1ccc(-c2cc(S(=O)(=O)NC3(C)CC3)cc3c2N2CC(C)(C)N=C2N(C)C3=O)cn1 [Example 58, N-methyl-5-(2,2,4-trimethyl-7-(N-(1-methylcyclopropyl)sulfamoyl)-5-oxo-1,2,4,5-tetrahydroimidazo[1,2-a]quinazolin-9-yl)picolinamide]	100 to 1000 nM
CN1C(=O)c2cc(S(=O)(=O)NC3(C)CC3)cc(C3=CCN(C(=O)C4CC4)CC3)c2N2CC(C)(C)N=C12 [Example 59, 9-(1-(cyclopropanecarbonyl)-1,2,3,6-tetrahydropyridin-4-yl)-2,2,4-trimethyl-N-(1-methylcyclopropyl)-5-oxo-1,2,4,5-tetrahydroimidazo[1,2-a]quinazoline-7-sulfonamide]	100 to 1000 nM
Cc1cc(F)ccc1-c1cc(S(=O)(=O)NC2(C)CC2)cc2c1N1CC(C)(C)N=C1N(C)C2=O [Example 61, 9-(4-fluoro-2-methylphenyl)-2,2,4-trimethyl-N-(1-methylcyclopropyl)-5-oxo-1,2,4,5-tetrahydroimidazo[1,2-a]quinazoline-7-sulfonamide]	100 to 1000 nM
C[C@@H]1CN=C2N(C)C(=O)c3cc(S(=O)(=O)NC4(C)CC4)cc(-c4ccccc4C#N)c3N21 [Example 63, (R)-9-(2-cyanophenyl)-1,4-dimethyl-N-(1-methylcyclopropyl)-5-oxo-1,2,4,5-tetrahydroimidazo[1,2-a]quinazoline-7-sulfonamide]	1000 to 10000 nM
C[C@@H]1CN=C2N(CCCO)C(=O)c3cc(S(=O)(=O)NC4(C)CC4)ccc3N21 [Example 64, (R)-4-(3-hydroxypropyl)-1-methyl-N-(1-methylcyclopropyl)-5-oxo-1,2,4,5-tetrahydroimidazo[1,2-a]quinazoline-7-sulfonamide]	1000 to 10000 nM
